Key:
[1] = system: ICR mouse; experiment: Oral glucose tolerance test in normal mouse; type: in vivo; settings: ICR mouse fasted overnight; 10 mg/kg oral, glucose loading after 30 minutes; AUC lowering rate of blood glucose up to 2 hours after glucose loading vs solvent control
Experimental: (§1) The test compound was dissolved in a solvent (5% Cremophor, aqueous 5% DMSO solution), and to an ICR mouse after fasting overnight was orally administered 10 mg/kg of the test compound, and after 30 minutes, oral glucose loading was carried out. Immediately before the administration of the test compound, immediately before the glucose loading, and 0.25, 0.5, 1, and 2 hours after the glucose loading, blood was collected and blood glucose levels were measured. An AUC lowering rate (%) of the blood glucose levels from immediately before the glucose loading to 2 hours after the glucose loading with respect to that of the solvent control group was calculated.

[2] = target: T1, recombinant human hepatic type GK (GST-hGK2) (Homo sapiens, UniProt P35557); experiment: Measurement of glucokinase (GK) activation; type: biochemical; settings: 10 min; test compound final concentration 10 μM; 5 mM glucose; 27° C.; increase of absorbance at 340 nm during first 10 minutes vs DMSO; read-out: GK activation (%)
T1 construct: made in house; host or cells: Escherichia coli BL21
T1 sequence (P35557 1-466 isoform P35557-2): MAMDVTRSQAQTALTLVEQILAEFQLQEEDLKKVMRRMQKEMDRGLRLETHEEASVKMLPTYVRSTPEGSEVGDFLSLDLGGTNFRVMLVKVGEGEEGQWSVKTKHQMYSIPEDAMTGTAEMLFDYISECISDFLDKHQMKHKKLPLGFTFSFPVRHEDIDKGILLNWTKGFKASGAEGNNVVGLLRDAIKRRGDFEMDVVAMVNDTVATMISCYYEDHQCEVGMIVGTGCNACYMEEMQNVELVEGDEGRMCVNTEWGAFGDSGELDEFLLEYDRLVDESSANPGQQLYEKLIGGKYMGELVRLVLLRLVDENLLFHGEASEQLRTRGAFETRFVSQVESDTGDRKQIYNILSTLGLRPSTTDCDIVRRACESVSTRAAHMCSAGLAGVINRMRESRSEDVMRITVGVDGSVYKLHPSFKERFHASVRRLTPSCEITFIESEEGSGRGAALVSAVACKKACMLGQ
Experimental: The present test was carried out in accordance with the method described in Science 301: 370-373, 2003 and with partial modification thereof. Hereinafter, the summary is described.
First, the cloning of GK (GenBank No. AK122876) was carried out. 5′-[…]-3′(SEQ ID NO: 1) and 5′-[…]-3′(SEQ ID NO: 2) were used as primers, and pME18S-FL3-Glucokinase isoform 2 was used as a template to carry out PCR. The obtained reaction product was TA-cloned into a pGEM-T easy vector, digested with EcoRI and XhoI, and introduced to the pGEX-5X-1 vector digested in the same manner by ligation. By using this plasmid DNA (pGEX-human Glucokinase 2), a recombinant human hepatic type GK (GST-hGK2) fused with GST (Glutathione S-transferase) was expressed in Escherichia coli (BL21 strain) and purified by Glutathione Sepharose.
The reaction of GK was carried out at 27° C. on a 96-well plate. First, 1 μL of the test compound (final concentration 10 μM) that has been diluted with dimethylsulfoxide (DMSO) was added to 89 μL of an enzyme mixed liquid (all final concentration 25 mM HEPES pH 7.4, 25 mM KCl, 2 mM MgCl2, 1 mM ATP, 0.1% BSA, 1 mM DTT, 1 mM NADP (nicotinamide adenine dinucleotide phosphate), 2.5 U/ml glucose-6-phosphate dehydrogenase, GST-hGK2 adjusted to ΔODCont of about 0.05 to 0.10). Subsequently, 10 μL of a substrate solution (final concentration 5 mM glucose) was added to start the reaction. In order to quantify a final product NADPH, an absorbance at a wavelength of 340 nm was measured, and the GK activation (%) of the test compound was calculated from the increase of absorbance during the first 10 minutes (ΔOD) after initiation of the reaction. GK activation (%)=[(ΔODTest)−(ΔODCont)]/(ΔODCont)×100
ΔODTest: ΔOD at test compound

[3] = system: C57BL/6 mice after loading a high fat diet; experiment: Oral glucose tolerance test in mouse fed high fat diet; type: in vivo; settings: high fat diet about 30 days, fasted overnight, 1 mg/kg oral, glucose loading after 30 minutes, AUC lowering rate of blood glucose up to 2 hours vs solvent control
Experimental: The test compound was dissolved in a solvent (5% Cremophor, aqueous 5% DMSO solution), and to a C57BL/6 mice after loading a high fat diet for about 30 days and then fasting overnight was orally administered 1 mg/kg of the test compound, and after 30 minutes, oral glucose loading was carried out. Immediately before the administration of the test compound, immediately before the glucose loading, and 0.25, 0.5, 1, and 2 hours after the glucose loading, blood was collected and blood glucose levels were measured. An AUC lowering rate (%) of the blood glucose levels from immediately before the glucose loading to 2 hours after the glucose loading with respect to that of the solvent control was calculated.

[4] = system: SD rat; experiment: Oral glucose tolerance test in normal rat; type: in vivo; settings: SD rat fasted overnight; 1 mg/kg oral, glucose loading after 30 minutes; AUC lowering rate of blood glucose up to 2 hours vs solvent control
Experimental: as §1, with “SD rat” for “ICR mouse”, “1” for “10”, “and” for “and 0.25,”, “control” for “control group”

| SMILES | activation at 10 µM [2] [%] | inhibition in vivo at 10 mg/kg [1] [%] | Blood glucose lowering rate (%) [3] [%] | Blood glucose lowering rate (%) [4] [%] |
| --- | --- | --- | --- | --- |
| O=C1CC[C@H](C[C@@H](C(=O)Nc2cnc(Cl)cn2)c2ccc(S(=O)(=O)C3CC3)c(C3CC3)c2)C1 [Example 70] | 282 | 60 |  |  |
| Cc1cnc(NC(=O)[C@H](C[C@H]2CCC(O)C2)c2ccc(S(=O)(=O)C3CC3)c(C3CC3)c2)cn1 (stereo partly drawn) [Example 78] | 273 | 50 |  |  |
| Cc1cnc(NC(=O)/C(=C/[C@H]2CCC(=O)C2)c2ccc(S(=O)(=O)C3CC3)c(C3CC3)c2)cn1 [Example 36] | 332 | 45 | 43 | 40 |
| CC(O)c1cnc(NC(=O)[C@H](C[C@H]2CCC(=O)C2)c2ccc(S(=O)(=O)C3CC3)c(C3CC3)c2)cn1 (stereo partly drawn) [Example 83] | 345 | 51 |  | 17 |
| O=C1CC[C@H](C[C@@H](C(=O)Nc2cnc(CO)cn2)c2ccc(S(=O)(=O)C3CC3)c(C3CC3)c2)C1 [Example 15, (2R)-2-[3-cyclopropyl-4-(cyclopropylsulfonyl)phenyl]-N-[5-(hydroxymethyl)pyrazin-2-yl]-3-[(1R)-3-oxocyclopentyl]propanamide] | 284 | 49 |  | 22 |
| COc1cnc(NC(=O)[C@H](C[C@H]2CCC(O)C2)c2ccc(S(=O)(=O)C3CC3)c(C3CC3)c2)cn1 (stereo partly drawn) [Example 79] | 297 | 45 |  |  |
| CC(=O)c1csc(NC(=O)[C@H](C[C@H]2CCC(=O)C2)c2ccc(S(=O)(=O)C3CC3)c(C3CC3)c2)n1 [Example 51] | 352 | 55 |  |  |
| Cc1cnc(NC(=O)[C@H](C[C@H]2CCC(=O)C2)c2ccc(S(=O)(=O)C3CC3)c(C3CC3)c2)cn1 [Example 55] | 315 | 56 |  |  |
| O=C1CC[C@H](C[C@@H](C(=O)Nc2cnc(OCCO)cn2)c2ccc(S(=O)(=O)C3CC3)c(C3CC3)c2)C1 [Example 11, (2R)-2-[3-cyclopropyl-4-(cyclopropylsulfonyl)phenyl]-N-[5-(2-hydroxyethoxy)pyrazin-2-yl]-3-[(1R)-3-oxocyclopentyl]propanamide] | 433 | 50 |  | 20 |

Further lines, with some results ahead:

| activation at 10 µM [2] [%] | SMILES | inhibition in vivo at 10 mg/kg [1] [%] | Blood glucose lowering rate (%) [3] [%] | Blood glucose lowering rate (%) [4] [%] |
| --- | --- | --- | --- | --- |
| 199 | Cn1ccc(NC(=O)/C(=C/[C@H]2CC[C@@H](O)C2)c2ccc(S(=O)(=O)C3CC3)c(C3CC3)c2)n1 [Example 22-2, 2(E)-[3-cyclopropyl-4-(cyclopropylsulfonyl)phenyl]-3-[(1S,3R)-3-hydroxycyclopentyl]-N-(1-methyl-1H-pyrazol-3-yl)acrylamide] | 52 |  | 25 |
| 355 | Cn1ccc(NC(=O)/C(=C/[C@H]2CCC(=O)C2)c2ccc(S(=O)(=O)C3CC3)c(C3CC3)c2)n1 [Example 4-1, (2E)-2-[3-cyclopropyl-4-(cyclopropylsulfonyl)phenyl]-N-(1-methyl-1H-pyrazol-3-yl)-3-[(1S)-3-oxocyclopentyl]acrylamide] | 39 | 32 | 25 |
| 197 | Cn1ccc(NC(=O)/C(=C/[C@H]2CC[C@H](O)C2)c2ccc(S(=O)(=O)C3CC3)c(C3CC3)c2)n1 [Example 22-1, 2(E)-[3-cyclopropyl-4-(cyclopropylsulfonyl)phenyl]-3-[(1S,3S)-3-hydroxycyclopentyl]-N-(1-methyl-1H-pyrazol-3-yl)acrylamide] | 55 |  | 27 |

— patent US8329707B2, “Substituted pyrazine compounds” (Astellas Pharma Inc., priority 2008, dated 2012)
